Assay results taken from patent US10647713B2 (Nimbus Lakshmi, Inc., priority 2016, dated 2020).

target: human TYK2 (JH2domain-pseudokinase) (Homo sapiens (Human), UniProt P29597); test: TYK2 JH2 Domain Binding Assay (KINOMEscan, DiscoveRx); conditions: 11-point dilution, duplicate
Summary of the method: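 TYK2 JH2 (G556–D888)–NFkB DBD fusion, DNA-tagged, from HEK293 extracts (<0.1 nM) competed against immobilised biotinylated ligand for 1 h at room temperature, 0.9% DMSO. Bead-retained kinase quantified by qPCR; Kd from 11-point 3-fold series (top 30,000 nM, duplicate), Hill fit with slope −1.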

Chain of human TYK2 (JH2domain-pseudokinase) (P29597 556-888): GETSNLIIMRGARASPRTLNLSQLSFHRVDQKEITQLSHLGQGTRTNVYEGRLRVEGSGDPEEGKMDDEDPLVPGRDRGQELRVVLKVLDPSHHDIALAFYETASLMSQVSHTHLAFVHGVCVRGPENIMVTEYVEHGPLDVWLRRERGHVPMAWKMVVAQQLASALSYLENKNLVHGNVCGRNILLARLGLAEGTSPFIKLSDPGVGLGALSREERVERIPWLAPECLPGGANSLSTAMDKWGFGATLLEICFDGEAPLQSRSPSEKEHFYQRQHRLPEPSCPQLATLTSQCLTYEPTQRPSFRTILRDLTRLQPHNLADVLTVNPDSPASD

Structure (SMILES) | Kd [nM]
Cc1nc2c(Nc3ccc(-c4cncn4C)cc3N(C)S(C)(=O)=O)cc(NC(=O)[C@H]3CC3(F)F)nc2[nH]1 [I-275, (R)-2,2-difluoro-N-(2-methyl-7-((4-(1-methyl-1H-imidazol-5-yl)-2-(N-methylmethylsulfonamido)phenyl)amino)-3H-imidazo[4,5-b]pyridin-5-yl)cyclopropane-1-carboxamide] | 1 to 10
Cc1nc2c(Nc3ccccc3N(C(F)F)S(C)(=O)=O)cc(Nc3cccc(C#N)n3)nc2[nH]1 [I-249, N-(2-((5-((6-cyanopyridin-2-yl)amino)-2-methyl-3H-imidazo[4,5-b]pyridin-7-yl)amino)phenyl)-N-(difluoromethyl)methanesulfonamide] | 1 to 10
Cn1ccc(-c2ccc(Nc3cc(NC(=O)C4CC4)nc4[nH]c(C(F)F)nc34)c(P(C)(C)=O)c2)n1 [I-429, N-(2-(difluoromethyl)-7-((2-(dimethylphosphoryl)-4-(1-methyl-1H-pyrazol-3-yl)phenyl)amino)-3H-imidazo[4,5-b]pyridin-5-yl)cyclopropanecarboxamide] | < 0.1
Cc1nc2c(Nc3ccc(Cl)cc3S(C)(=O)=O)cc(NC(=O)C3CC3)nc2[nH]1 [I-126, N-(7-((4-chloro-2-(methylsulfonyl)phenyl)amino)-2-methyl-3H-imidazo[4,5-b]pyridin-5-yl)cyclopropanecarboxamide] | 0.1 to 0.5
COCc1nc(-c2ccc(Nc3cc(NC(=O)C4CC4)nc4[nH]c(C)nc34)c(S(C)(=O)=O)c2)sc1C [I-512, N-(7-((4-(4-(methoxymethyl)-5-methylthiazol-2-yl)-2-(methylsulfonyl)phenyl)amino)-2-methyl-3H-imidazo[4,5-b]pyridin-5-yl)cyclopropanecarboxamide] | < 0.1
Cc1nc2c(Nc3ccccc3[S@+](C)[O-])cc(NC(=O)C3CC3)nc2[nH]1 [I-441, (S)—N-(2-methyl-7-((2-(methylsulfinyl)phenyl)amino)-3H-imidazo[4,5-b]pyridin-5-yl)cyclopropanecarboxamide] | 1 to 10
CS(=O)(=O)c1cc([C@H]2CCCO2)ccc1Nc1cc(NC(=O)C2CC2(F)F)nc2[nH]c(C(F)F)nc12 (stereo partly drawn) [I-329, N-(2-(difluoromethyl)-7-((2-(methylsulfonyl)-4-((R)-tetrahydrofuran-2-yl)phenyl)amino)-3H-imidazo[4,5-b]pyridin-5-yl)-2,2-difluorocyclopropane-1-carboxamide] | 1 to 10
Cc1nc2c(Nc3ccc([C@@H]4CCC(C)(C)CO4)cc3S(C)(=O)=O)cc(NC(=O)C3CC3)nc2[nH]1 [I-550, (S)—N-(7-((4-(5,5-dimethyltetrahydro-2H-pyran-2-yl)-2-(methylsulfonyl)phenyl)amino)-2-methyl-3H-imidazo[4,5-b]pyridin-5-yl)cyclopropanecarboxamide] | < 0.1
CN=[S@@](C)(=O)c1cc(-c2nc(COC)c(C)s2)ccc1Nc1cc(NC(=O)C2CC2)nc2[nH]c(C(F)F)nc12 [I-649] | 1 to 10
COc1ccccc1Nc1cc(NC(=O)C2CC2)nc2[nH]c(C(F)F)nc12 [I-28, N-(2-(difluoromethyl)-7-((2-methoxyphenyl)amino)-3H-imidazo[4,5-b]pyridin-5-yl)cyclopropanecarboxamide] | > 10
COc1c(Nc2cc(Nc3cncc(C#N)n3)nc3[nH]c(C(F)F)nc23)cccc1-c1ccn(C)n1 [I-27, 6-((2-(difluoromethyl)-7-((2-methoxy-3-(1-methyl-1H-pyrazol-3-yl)phenyl)amino)-3H-imidazo[4,5-b]pyridin-5-yl)amino)pyrazine-2-carbonitrile] | 1 to 10
COc1c(Nc2cc(NC(=O)C3CC3)nc3[nH]c(C)nc23)cccc1-c1nn(C)nc1C [I-133, N-(7-((3-(2,5-dimethyl-2H-1,2,3-triazol-4-yl)-2-methoxyphenyl)amino)-2-methyl-3H-imidazo[4,5-b]pyridin-5-yl)cyclopropanecarboxamide] | 1 to 10
Cc1nc2c(Nc3ccc(C4CCC4)cc3S(C)(=O)=O)cc(NC(=O)[C@H]3CC3(F)F)nc2[nH]1 [I-412, (R)—N-(7-((4-cyclobutyl-2-(methylsulfonyl)phenyl)amino)-2-methyl-3H-imidazo[4,5-b]pyridin-5-yl)-2,2-difluorocyclopropane-1-carboxamide] | > 10
Cc1ncc(Nc2cc(Nc3ccc(C4CC4)cc3S(C)(=O)=O)c3nc(C(F)F)[nH]c3n2)nc1C [I-417, N7-(4-cyclopropyl-2-(methylsulfonyl)phenyl)-2-(difluoromethyl)-N5-(5,6-dimethylpyrazin-2-yl)-3H-imidazo[4,5-b]pyridine-5,7-diamine] | 1 to 10

Next, values leading:

Kd [nM] | Structure (SMILES)
1 to 10 | COc1c(Nc2cc(Nc3cccc(C#N)n3)nc3[nH]c(C(F)F)nc23)cccc1-c1nccs1 [I-558, 6-((2-(difluoromethyl)-7-((2-methoxy-3-(thiazol-2-yl)phenyl)amino)-3H-imidazo[4,5-b]pyridin-5-yl)amino)picolinonitrile]
< 0.1 | Cc1nc2c(Nc3ccc(-c4ccn(C)n4)cc3S(C)(=O)=O)cc(NC(=O)[C@@H]3C[C@@H]3F)nc2[nH]1 [I-224, (1S,2S)-2-fluoro-N-(2-methyl-7-((4-(1-methyl-1H-pyrazol-3-yl)-2-(methylsulfonyl)phenyl)amino)-3H-imidazo[4,5-b]pyridin-5-yl)cyclopropane-1-carboxamide]
1 to 10 | COc1cc(-c2cncn2C)ccc1Nc1cc(Nc2cccc(C#N)n2)nc2[nH]c(C)nc12 [I-160, 6-((7-((2-methoxy-4-(1-methyl-1H-imidazol-5-yl)phenyl)amino)-2-methyl-3H-imidazo[4,5-b]pyridin-5-yl)amino)picolinonitrile]
0.5 to 1 | Cc1cc(-c2ccc(Nc3cc(Nc4cccc(C(F)(F)F)n4)nc4[nH]c(C(F)F)nc34)c(S(C)(=O)=O)c2)nn1C [I-290, 2-(difluoromethyl)-N7-(4-(1,5-dimethyl-1H-pyrazol-3-yl)-2-(methylsulfonyl)phenyl)-N5-(6-(trifluoromethyl)pyridin-2-yl)-3H-imidazo[4,5-b]pyridine-5,7-diamine]
0.5 to 1 | CN(c1ccccc1Nc1cc(Nc2cccc(C(F)(F)F)n2)nc2[nH]c(C(F)F)nc12)S(C)(=O)=O [I-87, N-(2-((2-(difluoromethyl)-5-((6-(trifluoromethyl)pyridin-2-yl)amino)-3H-imidazo[4,5-b]pyridin-7-yl)amino)phenyl)-N-methylmethanesulfonamide]
0.1 to 0.5 | CS(=O)(=O)c1ccccc1Nc1cc(Nc2ccc3c(n2)C(F)(F)CC3)nc2[nH]c(C(F)F)nc12 [I-617, N5-(7,7-difluoro-6,7-dihydro-5H-cyclopenta[b]pyridin-2-yl)-2-(difluoromethyl)-N7-(2-(methylsulfonyl)phenyl)-3H-imidazo[4,5-b]pyridine-5,7-diamine]
0.1 to 0.5 | CP(C)(=O)c1cc(C2CCC2)ccc1Nc1cc(NC(=O)C2CC2)nc2[nH]c(C(F)F)nc12 [I-444, N-(7-((4-cyclobutyl-2-(dimethylphosphoryl)phenyl)amino)-2-(difluoromethyl)-3H-imidazo[4,5-b]pyridin-5-yl)cyclopropane carboxamide]
0.1 to 0.5 | Cc1nc2c(Nc3ccc(C(F)F)cc3N(C)S(C)(=O)=O)cc(Nc3cccc(C#N)n3)nc2[nH]1 [I-195, N-(2-((5-((6-cyanopyridin-2-yl)amino)-2-methyl-3H-imidazo[4,5-b]pyridin-7-yl)amino)-5-(difluoromethyl)phenyl)-N-methylmethanesulfonamide]
0.1 to 0.5 | Cc1nc2c(Nc3ccc(C4CC4)cc3S(C)(=O)=O)cc(NC(=O)C3CC3)nc2[nH]1 [I-188]
0.1 to 0.5 | COCCCn1ccc(-c2ccc(Nc3cc(NC(=O)C4CC4)nc4[nH]c(C(F)F)nc34)c(S(C)(=O)=O)c2)n1 [I-501, N-(2-(difluoromethyl)-7-((4-(1-(3-methoxypropyl)-1H-pyrazol-3-yl)-2-(methylsulfonyl)phenyl)amino)-3H-imidazo[4,5-b]pyridin-5-yl)cyclopropanecarboxamide]
0.1 to 0.5 | CN(c1cc(C2CCOCC2)ccc1Nc1cc(NC(=O)C2CC2)nc2[nH]c(C(F)F)nc12)S(C)(=O)=O [I-182, N-(2-(difluoromethyl)-7-((2-(N-methylmethylsulfonamido)-4-(tetrahydro-2H-pyran-4-yl)phenyl)amino)-3H-imidazo[4,5-b]pyridin-5-yl)cyclopropanecarboxamide]
0.1 to 0.5 | Cc1nc(-c2ccc(Nc3cc(NC(=O)C4CC4)nc4[nH]c(C(F)F)nc34)c(N(C)S(C)(=O)=O)c2)n(C)n1 [I-164, N-(2-(difluoromethyl)-7-((4-(1,3-dimethyl-1H-1,2,4-triazol-5-yl)-2-(N-methylmethylsulfonamido)phenyl)amino)-3H-imidazo[4,5-b]pyridin-5-yl)cyclopropanecarboxamide]
0.5 to 1 | Cc1nc2c(Nc3ccc([C@H]4CCCCO4)cc3S(C)(=O)=O)cc(NC(=O)[C@H]3CC3(F)F)nc2[nH]1 [I-256, (R)-2,2-difluoro-N-(2-methyl-7-((2-(methylsulfonyl)-4-((R)-tetrahydro-2H-pyran-2-yl)phenyl)amino)-3H-imidazo[4,5-b]pyridin-5-yl)cyclopropane-1-carboxamide]
0.1 to 0.5 | Cc1nc2c(Nc3ccc([C@H]4CCCCO4)cc3S(C)(=O)=O)cc(Nc3cc4n(n3)CCOC4)nc2[nH]1 [I-587, (R)—N5-(6,7-dihydro-4H-pyrazolo[5,1-c][1,4]oxazin-2-yl)-2-methyl-N7-(2-(methylsulfonyl)-4-(tetrahydro-2H-pyran-2-yl)phenyl)-3H-imidazo[4,5-b]pyridine-5,7-diamine]
0.1 to 0.5 | CS(=O)(=O)c1cc(F)ccc1Nc1cc(Nc2cc3c(nn2)CCC3)nc2[nH]c(C(F)F)nc12 [I-633]
0.5 to 1 | COc1c(Nc2cc(Nc3cnc(C(C)(C)OC)c(C#N)n3)nc3[nH]c(C)nc23)cccc1-c1nnn(C)n1 [I-204, 6-((7-((2-methoxy-3-(2-methyl-2H-tetrazol-5-yl)phenyl)amino)-2-methyl-3H-imidazo[4,5-b]pyridin-5-yl)amino)-3-(2-methoxypropan-2-yl)pyrazine-2-carbonitrile]
0.1 to 0.5 | COc1c(Nc2cc(Nc3cc4c(nn3)CCC4)nc3[nH]c(C(F)F)nc23)cccc1-c1cnn(C)n1 [I-648]
